System: coiled-coil pairs within the eight-peptide interactome
Assay: Thermal denaturation followed by CD at 222 nm (Tm of coiled-coil pairs)
Format: binding
Conditions: Table 1 and text, CD 222 nm, 150 μM total peptide (75 μM per peptide for heterodimers), 10 mM potassium phosphate, 100 mM potassium fluoride, pH 7, -8 to 95 °C in 1 °C steps, two-state fit
Experimental: CD was carried out using an Applied Photophysics Chirascan CD apparatus (Leatherhead, UK) using a 200-μl sample in a CD cell with a 1-mm path length. Samples contained 150 μM total peptide (Pt) concentration at equimolar concentration for heterodimeric solutions (i.e., 75 μM per peptide) and suspended in 10 mM potassium phosphate and 100 mM potassium fluoride at pH 7 1 h prior to analysis. The CD spectra of samples were scanned between 300 nm and 190 nm in 1-nm steps, averaging 0.5 s at each wavelength. Three scans at 20 °C were averaged to assess helical levels and coiled-coil structure.
Thermal denaturations were performed at 150 μM Pt in 10 mM potassium phosphate and 100 mM potassium fluoride, pH 7, using an Applied Photophysics Chirascan CD instrument (Leatherhead, UK). The temperature ramp was set to stepping mode using 1 °C increments and paused for 30 s at each temperature before measuring ellipticity at 222 nm. For all temperature denaturation experiments, data collection was started at − 8 °C, and at this temperature, the peptide solutions remained aqueous. Data collection continued to 95 °C. Data points for thermal denaturation profiles represent the averaged signal after 4 s of data collection. Melting profiles (see Fig. 3a) were ≥ 95% reversible with equilibrium denaturation curves fitted to a two-state model, derived via modification of the Gibbs–Helmholtz equation [6], [45], [46], to yield the melting temperature (Tm). […] Tm values were determined by least-squares fitting of the denaturation assuming a two-state folding model that is widely used for coiled coils and provided an excellent fit to our data.

Sequence | Tm | further results
ASEIAALEAENAALEYKNAALKAKIAALKGAP [Peptide 8, N- and C-capped coiled-coil peptide; 8-8 is the homomeric sample] | – | Tm (listed as 8-8): 27 °C
ASENAALEAKNAALKYKIAALKAEIAALEGAP [Peptide 1, N- and C-capped coiled-coil peptide; 1-1 is the homomeric sample] | 32 °C | –
ASKIAALKAKNAALKYENAALEAEIAALEGAP [Peptide 7, N- and C-capped coiled-coil peptide; 7-7 is the homomeric sample] | – | Tm (listed as 7-7): 11 °C
ASKNAALKAENAALEYEIAALEAKIAALKGAP [Peptide 2, N- and C-capped coiled-coil peptide; 2-2 is the homomeric sample] | 20 °C | –
ASENAALEAKIAALKYEIAALEAKNAALKGAP [Peptide 6, N- and C-capped coiled-coil peptide; 6-6 is the homomeric sample] | 53 °C | –
ASKNAALKAEIAALEYKIAALKAENAALEGAP [Peptide 5, N- and C-capped coiled-coil peptide; 5-5 is the homomeric sample] | 53 °C | –
